# Measurements: BindingDB's records for doi:10.1007/bf00506193 (1984)
# Biological target: T1, Alpha-1A adrenergic receptor (Rattus norvegicus, UniProt P43140)
# T1 sequence (P43140 whole entry): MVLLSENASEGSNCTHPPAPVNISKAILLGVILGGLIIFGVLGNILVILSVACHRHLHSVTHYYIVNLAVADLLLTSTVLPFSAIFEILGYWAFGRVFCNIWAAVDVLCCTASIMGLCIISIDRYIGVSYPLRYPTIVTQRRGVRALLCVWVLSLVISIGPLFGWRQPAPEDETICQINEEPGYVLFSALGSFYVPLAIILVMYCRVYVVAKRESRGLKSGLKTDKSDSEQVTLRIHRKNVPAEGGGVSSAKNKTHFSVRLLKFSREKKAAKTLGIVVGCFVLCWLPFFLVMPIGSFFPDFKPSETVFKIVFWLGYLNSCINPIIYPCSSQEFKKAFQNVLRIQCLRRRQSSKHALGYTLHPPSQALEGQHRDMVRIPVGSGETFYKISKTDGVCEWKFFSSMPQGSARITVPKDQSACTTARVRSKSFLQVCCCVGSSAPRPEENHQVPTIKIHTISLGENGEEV
structure (smiles),measurement,value
c1ccc2c(c1)OCC(C1=NCCN1)O2 (stereo unspecified),Ki,0.091 µM
